Where a SMILES comes first, the peptide text is derived from it. [ ]: non-standard residue; d: D form. The star is where a group is joined. Palmitoyl = CCCCCCCCCCCCCCCC(=O)*; β3hK = NCCCC[C@H](N)CC(=O)O

Results on 7 molecules are retold here after patent US20250059231A1, “Protease inhibitors” (priority 2021, published 2025).

For data set [1], the target named is T1, WNV protease (West Nile virus, UniProt P06935).
T1 construct: a trypsin-like serine protease domain in the N-terminal region of the flaviviral NS3 proteins
Nature of the data set: WNV protease assay (analogous procedure). The class given is biochemical. The note with it: at 50 μM. The procedure, abridged:
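Adapted from the DENV protease assay: inhibitors preincubated 15 min with protease (DENV at 100 nM) in 50 mM Tris-HCl pH 9.0, 10% ethylene glycol, 0.0016% Brij 58, then FRET substrate (50 μM final) added.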

In another data set the target is T2, DENV protease (Dengue virus type 2, UniProt P29990).
T2 construct: The virus-encoded dengue protease comprises the amino-terminal 180 amino acids of NS3 (NS3pro) of the polyprotein
Nature of the data set: biochemical. The settings on record: read-out: inhibition of DENV. The method in brief: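 DENV protease (100 nM) was pre-incubated 15 min with inhibitors in 50 mM Tris-HCl pH 9.0, 10% ethylene glycol, 0.0016% Brij 58. FRET substrate (50 μM final) started the reaction, monitored 15 min as RFU/s slope. IC50 came from triplicate means versus concentration.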

In data set [2] the target is T1, WNV protease. Nature of the data set: WNV protease assay (analogous procedure). It counts as biochemical. The note with it: read-out: IC50 for WNNV.
In another data set the target is human Trypsin (Homo sapiens, UniProt P07477). Nature of the data set: Selectivity screening, human serine protease trypsin. The class given is biochemical. The note with it: read-out: inhibition of human Trypsin. The procedure, abridged: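 Active candidates were counter-screened for selectivity against the human serine protease trypsin in a biochemical assay similar to the flavivirus protease assay. Cleavage of a substrate by protease activity raises fluorescence, which is read on a microtiter fluorescence plate reader. Compounds are diluted from 10 mM DMSO stocks and tested in triplicate, and inhibition of trypsin is reported.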

Another data set concerns the target human Thrombin (Homo sapiens, UniProt P00734). Nature of the data set: Selectivity screening, human serine protease thrombin. The class given is biochemical. The note with it: at 5 μM; read-out: inhibition of human Thrombin.
A further data set deals with T3, ZIKA protease (Zika virus, UniProt Q32ZE1).
T3 construct: a trypsin-like serine protease domain in the N-terminal region of the flaviviral NS3 proteins
Nature of the data set: biochemical. The note with it: for inhibition at 50 µM / inhibition at 1 µM: read-out: inhibition of ZIKV.

The subject of data set [3] is Dengue virus 2 (DENV2, ATCC VR-1584). Nature of the data set: DENV2 infection in AG129 mice: viral load in plasma (plaque assay). The class given is in vivo. The note with it: 100 mg/kg, SC. The procedure:
(§1) The purpose of this study was to determine the efficacy of the compounds on Dengue virus 2 (DENV2, ATCC® VR-1584™) infection in AG129 mice.
(§2) Six groups of AG129 mice, 6-8 weeks old, with 9 mice per group were used to test compounds according to table 3.1.1. Animal room environment was monitored for temperature and relative humidity twice per day. The temperature range was 22° C.±3° C. and humidity range was 30-70%. The animals were provided with 12 hours light and 12 hours darkness. Feed and drinking water was provided ad libitum. Compounds 43 and 113 were tested.
(§3) Twenty-four hours post treatment (Day 0), animals were injected intraperitoneally (IP) with 0.2 ml of virus suspension (˜5×10^7/animal).
(§4) Administration of compounds and vehicle to animals started twenty four hours before infection (Day −1). Animals were treated daily (From Day-1 to day 4) as per the experimental design shown below in table 3.1.5. Animals were monitored for general clinical signs, morbidity and mortality. Body weights were measured daily.
Blood was collected on days-1, 0, 1, 2, 3, 4 to 5.
BHK-21 cells were cultured to approximately 80% confluency in 24-well plates (NUNC, NY, USA). Plasma samples were 10-fold serially diluted in RPMI 1640 (GIBCO). BHK-21 monolayers were infected with 100 μl of each virus dilution. After incubation at 37° C. and 5% CO2 atmosphere for one hour with rocking at 15 min intervals, the medium was decanted and 1 ml of 1% (w/v)carboxymethyl cellulose in RPMI supplemented with 2% FCS was added to each well. After four days incubation at 37° C. in 5% CO2, the cells were fixed with 4% paraformaldehyde and stained for 30 min with […] of 1% crystal violet dissolved in 37% formaldehyde. After thorough rinsing with water, plates were dried and the plaques were scored visually.
(§5) The Mean±SD Log10PFU/ml, relative Mean±SD spleen weight, Mean±SD biomarker concentrations were estimated in each group. Significant differences between group means and control were analyzed by one-way ANOVA, followed by a Dunnett's multiple comparison test, using GraphPad Prism 5 at 95% confidence levels. A p value of <0.05 was considered as significant.

Data set [4] shares this test system. Nature of the data set: DENV2 infection in AG129 mice: clinical signs, body and spleen weights. It counts as in vivo. The settings on record: 100 mg/kg, SC; n = 9. The procedure: as §1, §2
C6/36 (ATCC(CRL-1660) cell lines were grown in RPMI 1640 medium (Gibco/HiMedia) plus 5% fetal bovine serum at 28° C. Dengue virus type 2 (ATCC®VR-1584™) New Guinea C(NGC, DENV2) was passaged in BHK-21 cell cultures to make sufficient stocks for assay. Virus titer was determined by TCID50 method using BHK-21 cells.
as §3
The vehicle for tested compounds was 5% DMSO+95% (20%) hydroxypropylcyclodextrin. […] Formulations were prepared daily immediately before dosing.
as §4
Animals were sacrificed on day 5 post infection with Isoflurane followed by an overdose of CO2. Spleens were excised, measured and weighed.
as §5

T2 sequence (P29990 1398-1437): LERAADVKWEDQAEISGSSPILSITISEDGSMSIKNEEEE
T2 sequence (P29990 1476-1653): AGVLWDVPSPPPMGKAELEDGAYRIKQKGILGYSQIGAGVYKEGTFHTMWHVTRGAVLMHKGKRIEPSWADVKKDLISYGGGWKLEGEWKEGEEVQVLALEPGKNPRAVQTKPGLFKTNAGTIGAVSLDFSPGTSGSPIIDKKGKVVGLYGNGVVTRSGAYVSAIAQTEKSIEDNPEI
T1 sequence (P06935 1424-1463): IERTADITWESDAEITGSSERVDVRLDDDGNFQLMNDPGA
T1 sequence (P06935 1502-1679): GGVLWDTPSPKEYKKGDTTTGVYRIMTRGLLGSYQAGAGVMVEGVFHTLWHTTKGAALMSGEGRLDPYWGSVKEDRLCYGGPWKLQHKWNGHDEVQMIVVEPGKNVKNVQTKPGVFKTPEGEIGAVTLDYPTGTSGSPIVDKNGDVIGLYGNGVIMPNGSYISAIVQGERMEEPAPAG
T3 sequence (Q32ZE1 1499-1676): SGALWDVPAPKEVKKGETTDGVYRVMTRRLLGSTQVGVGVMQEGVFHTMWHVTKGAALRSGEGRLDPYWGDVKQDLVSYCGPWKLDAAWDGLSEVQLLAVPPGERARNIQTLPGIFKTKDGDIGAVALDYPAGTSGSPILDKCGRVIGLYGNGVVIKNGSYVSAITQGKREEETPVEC
T3 sequence (Q32ZE1 1421-1460): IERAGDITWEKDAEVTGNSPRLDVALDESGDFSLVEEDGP

In general, inhibition refers to the share of the control response that was lost under treatment. The term EC50 denotes the concentration giving half of the maximal effect. A lower EC50 goes with an effect from little substance. Broadly, the IC50 is the concentration needed to halve the response being measured. As for `CCCCCCCCCCCCCCCC(=O)N[C@H](CCCCN)C(=O)N1CCC[C@H]1C(=O)N[C@@H](C)C(=O)N[C@@H](Cc1c[nH]c2ccccc12)C(N)=O` [compound 196] (Palmitoyl-[dK]PAW-NH2), the inhibition at 50 µM at WNV protease [1] is no less than 25%; at DENV protease it was no less than 25%; on ZIKA protease, no less than 65%. For the same molecule, the 50% effective concentration (EC50) in the data set on ZIKV is no more than 10 µM; in the data set on West Nile virus, no more than 25 µM. Moreover, the IC50 on WNV protease [2] is no more than 40 µM; on ZIKA protease, no more than 25 µM. Also, the inhibition at 5 µM was less than 10% on human Trypsin and less than 5% on human Thrombin. The inhibition at 25 µM on human Trypsin is less than 20%.

For `CCCCCCCCCCCCCCCC(=O)N[C@@H](CCCCC(=N)N)C(=O)N[C@@H](Cc1c[nH]cn1)C(N)=O` [compound 170], the inhibition at 50 µM is no less than 25% on WNV protease [1], no less than 25% at DENV protease and no less than 65% at ZIKA protease. The EC50 with ZIKV is no more than 10 µM; in the data set on West Nile virus, no more than 25 µM. Moreover, the IC50 on WNV protease [2] is no more than 40 µM; on ZIKA protease it was no more than 25 µM. For the same molecule, the inhibition at 5 µM on human Trypsin was less than 10%; on human Thrombin, less than 5%. Also, on human Trypsin, the inhibition at 25 µM is less than 20%.

In the case of `CCCCCCCCCCCCCCCC(=O)N[C@@H](CCCCN)C(=O)N[C@@H](C)C(=O)N[C@@H](C)C(=O)N[C@@H](CCCCN)C(=O)O` [compound 189] (Palmitoyl-KAAK-OH), the results for the inhibition at 50 µM at DENV protease and at ZIKA protease were no less than 25% and no less than 65%, respectively. Besides, the EC50 is no more than 10 µM in the data set with ZIKV and no more than 25 µM with West Nile virus. Moreover, the results for the IC50 on WNV protease [2] and at ZIKA protease were no more than 40 µM and no more than 25 µM, respectively. Also, the inhibition at 5 µM on human Trypsin is less than 10%; at human Thrombin it was less than 5%. Further, on human Trypsin, the inhibition at 25 µM was less than 20%. Moreover, the inhibition at 1 µM at ZIKA protease was no less than 10%.

As to `CCCCCCCCCCCCCCCC(=O)N[C@@H](CCCCN)CC(=O)N[C@@H](C)C(=O)N[C@H](C)C(=O)N[C@@H](CCCCN)C(N)=O` [compound 114] (Palmitoyl-[β3hK]A[dA]K-NH2), the inhibition at 1 µM at DENV protease (at 1 μM) was no less than 20%; on ZIKA protease, no less than 10%. For the same molecule, the inhibition at 50 µM at DENV protease was no less than 25%; on ZIKA protease, no less than 65%. For the same molecule, the results for the EC50 in the data set on ZIKV and in the data set with West Nile virus were no more than 10 µM and no more than 25 µM, respectively. The IC50 is no more than 40 µM at WNV protease [2] and no more than 25 µM at ZIKA protease. Besides, at human Trypsin, the inhibition at 5 µM was less than 10%. Besides, the inhibition at 25 µM on human Trypsin was less than 20%.

With `NC(=O)c1ncn([C@@H]2O[C@H](CO)[C@@H](O)[C@H]2O)n1` [Ribavirin, ribavirin, reference compound], the “Mean + SD Log10PFU/ml Plasma” value was 3.34 ± 0.29 Log10PFU/ml in data set [3] (Day 2) and 3.50 ± 0.13 Log10PFU/ml in [3] (Day 5). The “Body weights of mice at the end of the study (Mean ± SD)” value in [4] was found to be 20.11 ± 1.05 g.

`CCCCCCCCCCCCCCCC(=O)N[C@@H](CCCCN)CN1CCC[C@H]1C(=O)N[C@@H](C)C(=O)N[C@H](CCc1ccccc1)C(N)=O` [compound 118]: the values for the inhibition at 50 µM on WNV protease [1], on DENV protease and on ZIKA protease were no less than 25%, no less than 25% and no less than 65%, respectively. The results for the EC50 with ZIKV and in the data set on West Nile virus were no more than 10 µM and no more than 25 µM, respectively. The IC50 is no more than 40 µM at WNV protease [2] and no more than 25 µM at ZIKA protease. Further, the figures for the inhibition at 5 µM at human Trypsin and on human Thrombin were less than 10% and less than 5%, respectively. Moreover, the inhibition at 25 µM on human Trypsin is less than 20%. Besides, the inhibition at 1 µM at ZIKA protease was no less than 10%.

In the case of `CCCCCCCCCCCCCCCC(=O)N[C@H](CCCNC(=N)N)C(=O)N[C@@H](CCC(N)=O)C(=O)N[C@@H](Cc1ccccc1)C(N)=O` [compound 44] (Palmitoyl-[dR]-Gln-Phe-NH2), the inhibition at 50 µM at WNV protease [1] is no less than 25%; on DENV protease it was no less than 25%; at ZIKA protease, no less than 65%. Further, the values for the EC50 in the data set with ZIKV and with West Nile virus were no more than 10 µM and no more than 25 µM, respectively. For the same molecule, the IC50 was no more than 40 µM at WNV protease [2] and no more than 25 µM against ZIKA protease. The inhibition at 5 µM at human Trypsin was less than 10%; on human Thrombin, less than 5%. At human Trypsin, the inhibition at 25 µM is less than 20%. For the same molecule, the inhibition at 1 µM at ZIKA protease was no less than 10%.
